According to patent publication US8435547B2, “Cream for stimulating mitochondrial activity in the skin” (priority 2006, dated 2013):

Assays:
skin = assay: Skin testing for the cause of the allergic reactions; format: in vivo, human; settings: skin testing in the same volunteer
From the text: When the use of the cream containing these ingredients was discontinued, the allergic lesions cleared completely without scarring.

[1] = oral, human; cited from earlier work
[2] = cited from earlier work

## CCOC(=O)CC(O)C(=O)OCC (stereo not shown) [diethyl malate]
skin
  ingredient responsible for the allergic reactions: allergic reactions were due to the diethyl malate

## vitamin E
[1]
  dose above which toxicity is evident: above 1 gm/day

## tristeryl glycerol
[2]; alcohol
  solubility in alcohol: very slightly soluble
[2]; water
  solubility in water: insoluble
